Holding throughout (format): cell-based
The test system of assay [1] is Wnt activity (Sp5-Luc reporter, SW480 colon carcinoma cells). Briefly: Wnt activity screening assay: Sp5-Luc reporter gene assay in SW480 cells. The settings on record: Homo sapiens, SW480 cells, overnight incubation. The text has this:
The screening assay for Wnt activity is described as follows. Reporter cell lines can be generated by stably transducing cancer cell lines (e.g., colon cancer) or primary cells (e.g., IEC-6 intestinal cells) with a lentiviral construct that includes a Wnt-responsive promoter driving expression of the firefly luciferase gene.
SW480 colon carcinoma cells were transduced with a lentiviral vector expressing luciferase with a human Sp5 promoter consisting of a sequence of eight TCF/LEF binding sites. SW480 cells stably expressing the Sp5-Luc reporter gene and a hygromycin resistance gene were selected by treatment with 150 μg/mL of hygromycin for 7 days. These stably transduced SW480 cells were expanded in cell culture and used for all further screening activities. Each compound was dissolved in DMSO as a 10 mM stock and used to prepare compound source plates. Serial dilution (1:3, 10-point dose-response curves starting from 10 μM) and compound transfer was performed using the ECHO 550 (Labcyte, Sunnyvale, Calif.) into 384-well white solid bottom assay plates (Greiner Bio-One) with appropriate DMSO backfill for a final DMSO concentration of 0.1%. For Sp5-Luc reporter gene assays, the cells were plated at 4,000 cells/well in 384-well plates with medium containing 1% fetal bovine serum and incubated overnight at 37° C. and 5% CO2. Following incubation, 20 μl of BrightGlo luminescence reagent (Promega) was added to each well of the 384-well assay plates. The plates were placed on an orbital shaker for 2 min and then luminescence was quantified using the Envision (Perkin Elmer) plate reader. Readings were normalized to DMSO only treated cells, and normalized activities were utilized for EC50 calculations using the dose-response log (inhibitor) vs. response -variable slope (four parameters) nonlinear regression feature available in GraphPad Prism 5.0 (or Dotmatics). For EC50 of >10 μM, the percent inhibition at 10 μM is provided.
For orientation: Reporter assays use an easily measured gene product as a stand-in for the process of interest.

For the next assay, the system named is SW480 colon cancer cells. Briefly: Cell viability assay (CellTiter-Blue). The following applies: Homo sapiens, 96 h; SW480 cell viability, four days, CellTiter-Blue. How it is done: Representative compounds were screened using the following assay procedure to assess the effect on cell viability as described below.
Each compound was dissolved in DMSO as a 10 mM stock and used to prepare compound source plates. Serial dilution (1:3, 8-point dose-response curves from 10 μM to 0.0045 μM) and compound transfer was performed using the ECHO 550 (Labcyte, Sunnyvale, Calif.) into 96-well clear bottom, black-walled plates (Corning-Costar).
Approximately 2×10^3 SW480 colon cancer cells were seeded into each well and allowed to incubate in the presence or absence of compound for four days at 37° C./5% CO2. Eight replicates of DMSO-treated cells served as controls and cells treated with compound were performed in duplicate.
After incubation, 20 μL of CellTiter-Blue (Promega) was added to each well allowed to incubate for approximately 3 hours. This reagent was a buffered solution which contains resazurin, metabolically active cells were able to reduce rezarurin (blue) into resorufin (pink) which was highly fluorescent. This measured fluorescence was used as a readout for cell viability.
After incubation, the plates were read at Ex 560 nm Em 590 nm (Cytation 3, BioTek). Dose-response curves were generated and EC50 concentration values were calculated using non-linear regression curve fit in the GraphPad Prism (San Diego, Calif.) or Dotmatics' Studies Software (Bishops Stortford, UK). For EC50 of >10 μM, the percent inhibition at 10 μM is provided.
Background: Resazurin is reduced to fluorescent resorufin, in cell work by metabolically active cells.

In assay [2] the test system is primary human fibroblasts derived from IPF patients (LL29 cells). Briefly: Inhibition of the fibrotic process: αSMA staining in TGF-β1 treated fibroblasts. The following applies: Fibroblast, 96 h, LL29 cells, TGF-β1 20 ng/mL, 4 days, % αSMA positive cells. The text has this:
Representative compounds were screened using primary human fibroblasts (derived from IPF patients) treated with TGF-β1 to determine their ability to inhibit the fibrotic process.
Human Fibroblast Cell Culture: Primary human fibroblasts derived from IPF patients (LL29 cells) [^1Xiaoqiu Liu, et. al., “Fibrotic Lung Fibroblasts Show Blunted Inhibition by cAMP Due to Deficient cAMP Response Element-Binding Protein Phosphorylation”, Journal of Pharmacology and Experimental Therapeutics (2005), 315(2), 678-687; ^2Watts, K. L., et. al., “RhoA signaling modulates cyclin D1 expression in human lung fibroblasts; implications for idiopathic pulmonary fibrosis”, Respiratory Research (2006), 7(1), 88] were obtained from American Type Culture Collection (ATCC) and expanded in F12 medium supplemented with 15% Fetal Bovine Serum and Penicillin/Streptomycin.
Compound Screening: Each compound was dissolved in DMSO as a 10 mM stock and used to prepare compound source plates. Serial dilution (1:2, 11-point dose-response curves from 10 μM to […]) and compound transfer was performed using the ECHO 550 (Labcyte, Sunnyvale, Calif.) into 384-well clear bottom assay plates (Greiner Bio-One) with appropriate DMSO backfill for a final DMSO concentration of 0.1%. LL29 cells are plated at 1,500 cells/well in 80 μL/well F12 medium supplemented with 1% Fetal Bovine Serum. One hour after addition of the cells, TGF-β1 (Peprotech; 20 ng/mL) was added to the plates to induce fibrosis (ref. 1 and 2 above). Wells treated with TGF-β1 and containing DMSO were used as controls. Cells were incubated at 37° C. and 5% CO2 for 4 days. Following incubation for 4 days, SYTOX green nucleic acid stain (Life Technologies [Thermo Fisher Scientific]) was added to the wells at a final concentration of 1 μM and incubated at room temperature for 30 min. Cells were then fixed using 4% formaldehyde (Electron Microscopy Sciences), washed 3 times with PBS followed by blocking and permeabilization using 3% Bovine Serum Albumin (BSA; Sigma) and 0.3% Triton X-100 (Sigma) in PBS. Cells were then stained with antibody specific to α-smooth muscle actin (αSMA; Abcam) (ref. 1 and 2 above) in 3% Bovine Serum Albumin (BSA; Sigma) and 0.3% Triton X-100 (Sigma) in PBS, and incubated overnight at 4° C. Cells were then washed 3 times with PBS, followed by incubation with Alexa Flor-647 conjugated secondary antibody (Life Technologies [Thermo Fisher Scientific]) and DAPI at room temperature for 1 hour. Cells were then washed 3 times with PBS and plates were sealed for imaging. αSMA staining was imaged by excitation at 630 nm and emission at 665 nm and quantified using the Compartmental Analysis program on the CellInsight CX5 (Thermo Scientific). Dead or apoptotic cells were excluded from analysis based on positive SYTOX green staining. % of total cells positive for αSMA were counted in each well and normalized to the average of 11 wells treated with TGF-β1 on the same plate using Dotmatics' Studies Software. The normalized averages (fold change over untreated) of 3 replicate wells for each compound concentration were used to create dose-responses curves and EC50 values were calculated using non-linear regression curve fit in the Dotmatics' Studies Software. For EC50 of >10 μM, the percent inhibition at 10 μM is provided.

The subject of the next assay is IL-6 (THP-1 cells). In words: IL-6 inhibition in LPS-stimulated THP-1 cells (HTRF). The following applies: Homo sapiens; THP-1 cells, LPS 500 ng/mL, 22 hours, IL6 HTRF. How it is done:
Human Monocyte Cell Culture: Human monocyte cell line (THP-1 cells; Catalog # TIB-202, ATCC, Manassas, Va.) were cultured in Roswell Park Memorial Institute (RPMI) 1640 Medium (Catalog #21870-100, Buffalo, N.Y.) with 1% L-glutamine, 1% HEPES, 1% Sodium Pyruvate, 2% Sodium Bicarbonate supplemented with 100 units/mL penicillin, 50 μg/mL streptomycin, 2-mercaptoethanol (0.05 mM) [basal medium] and 10% fetal bovine serum (Catalog #16140089, Life Technologies, Carlsbad, Calif.) at 37° C. and 5% CO2.
Compound Screening: THP-1 cells were cultured in basal media with 1% FBS for 24 hours before the start of the assay. Each compound was dissolved in DMSO as a 10 mM stock and used to prepare compound source plates. Serial dilution (1:3, 10-point dose-response curves starting from 10 μM) and compound transfer was performed using the ECHO 550 (Labcyte, Sunnyvale, Calif.) into 384-well white low volume assay plates (Greiner Bio-One) with appropriate DMSO backfill for a final DMSO concentration of 0.1%. THP-1 cells were plated at 5000 cells/well in the 384-well plates and incubated at 37° C. for 2 h. 500 ng/mL of LPS was added after 2 hours and cells were incubated for another 22 hours at 37° C. Plates were spun in a centrifuge for 1 minute at […] and a mixture of anti-IL6 XL665, and anti-IL6 Cryptate diluted in reconstitution buffer (Cisbio Inc.) was added to each well. Following incubation for 3 hrs at room temperature, Homogeneous Time-Resolved Fluorescence (HTRF) was measured using the Envision (Perkin Elmer) at 665 nm and […]. The ratio of fluorescence at 665 nm to 620 nm was used as a readout for IL6 quantification. All samples were processed in duplicate. Readings were normalized to DMSO treated cells and normalized activities were utilized for EC50 calculations using the dose-response log (inhibitor) vs. response —variable slope (four parameters) nonlinear regression feature available in GraphPad Prism 5.0 (or Dotmatics). For EC50 of >10 μM, the percent inhibition at 10 μM is provided.
(In general: In TR-FRET formats the signal depends on donor and acceptor labels being close together.)

Molecules are shown by their SMILES.

For orientation: EC50 means the concentration giving half of the maximal effect. Read a high EC50 as a need for much substance. For `CC(C)Nc1cncc(-c2ccc3[nH]nc(-c4cc5c(-c6cccs6)ccnc5[nH]4)c3n2)c1` [Compound 348, N-Isopropyl-5-(3-(4-(thiophen-2-yl)-1H-pyrrolo[2,3-b]pyridin-2-yl)-1H-pyrazolo[4,3-b]pyridin-5-yl)pyridin-3-amine], the EC50 in assay [1] worked out at 1340 nM; in the assay on SW480 colon cancer cells, 4270 nM; in assay [2], 994 nM; with IL-6 (THP-1 cells), 1350 nM.
The like results for `CN(C)CCNc1cc(F)cc(-c2ccnc3[nH]c(-c4n[nH]c5ccc(-c6cncc(NC(=O)c7ccccc7)c6)nc45)cc23)c1` [Compound 459, N-(5-(3-(4-(3-((2-(Dimethylamino)ethyl)amino)-5-fluorophenyl)-1H-pyrrolo [2,3-b]pyridin-2-yl)-1H-pyrazolo[4,3-b]pyridin-5-yl)pyridin-3-yl)benzamide] were, in that order, 1500 nM, 1940 nM, 738 nM and 9 nM.

(Values after patent US10206909B2, “3-(1H-pyrrolo[2,3-B]pyridin-2-yl)-1H-pyrazolo[4,3-B]pyridines and therapeutic uses thereof” (Samumed, LLC, priority 2015, dated 2019).)
